Test: mn = molality of the nth substance listed, in mol/kg
Conditions: 101 kPa, Liquid, Vibrating tube method

NCCO [2-aminoethan-1-ol] + O
mass density [kg/m3]
Conditions	293.16 K	297.14 K	301.14 K	305.14 K	309.14 K	313.14 K	317.14 K	320.14 K
m1 = 2.8	1004.53	1003.31	1001.95	1000.48	998.89	997.21	995.42	994.02
m1 = 7.01	1013.19	1011.51	1009.75	1007.89	1005.96	1003.95	1001.85	1000.22
